Publication PMC10093837, “Rutin Concentration and Characterization of Rutinosidase in Perennial Buckwheat (Fagopyrum cymosum) and Its Application in Foods” (Foods, 2023)

Test system: T1, FC rutinosidase
T1 construct: gene f3g; native, purified from dehulled seeds (Q-Sepharose, Superdex 200, Mono Q twice); 58,400 +/- 2700 Da by gel filtration; single isozyme in native-PAGE
Test: UPLC of released quercetin; Lineweaver-Burk
Type: biochemical, Fagopyrum cymosum
Conditions: 50 mM acetate-LiOH pH 5.0, 20% (v/v) methanol, 25 °C (standard assay)
From the text: UPLC of released quercetin; Lineweaver-Burk on FC rutinosidase

Km: 367 ± 23.5 µM
SMILES: C[C@@H]1O[C@@H](OC[C@H]2O[C@@H](Oc3c(-c4ccc(O)c(O)c4)oc4cc(O)cc(O)c4c3=O)[C@H](O)[C@@H](O)[C@@H]2O)[C@H](O)[C@H](O)[C@H]1O [rutin]
